Experimental data taken from the supplement of paper PMC10307832.

How the values were obtained:
Assay in all cases: relative viability (nuclei count vs DMSO), 5 days (fraction); higher = more cells survive
BEN = tested on: BEN
Method in brief: (§1)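 Medians of duplicate plates are given as relative viability. That measure is the nuclei count in treated wells divided by the count in vehicle wells. Counts were taken on 4× images of lung cancer cell lines in 1536-well plates, 5 days after pin-tool dosing the day after seeding with one drug alone or a fixed anchor-drug dose plus five library-drug doses (not always all listed) in √10 steps.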

HCC-15 = tested on: HCC-15
Method in brief: as §1

NCI-H1651 = tested on: NCI-H1651
Method in brief: as §1

HCC-78 = tested on: HCC-78
Method in brief: as §1

NCI-H358 = tested on: NCI-H358
Method in brief: as §1

ChaGo-K-1 = tested on: ChaGo-K-1
Method in brief: as §1

LXF-289 = tested on: LXF-289
Method in brief: as §1

H3255 = tested on: H3255
Method in brief: as §1

NCI-H650 = tested on: NCI-H650
Method in brief: as §1

LK-2 = tested on: LK-2
Method in brief: as §1

NCI-H596 = tested on: NCI-H596
Method in brief: as §1

SK-MES-1 = tested on: SK-MES-1
Method in brief: as §1

LC-2-ad = tested on: LC-2-ad
Method in brief: as §1

NCI-H2087 = tested on: NCI-H2087
Method in brief: as §1

UMC-11 = tested on: UMC-11
Method in brief: as §1

NCI-H322M = tested on: NCI-H322M
Method in brief: as §1

NCI-H838 = tested on: NCI-H838
Method in brief: as §1

LCLC-97TM1 = tested on: LCLC-97TM1
Method in brief: as §1

LU99A = tested on: LU99A
Method in brief: as §1

NCI-H661 = tested on: NCI-H661
Method in brief: as §1

NCI-H1944 = tested on: NCI-H1944
Method in brief: as §1

NCI-H2342 = tested on: NCI-H2342
Method in brief: as §1

NCI-H1666 = tested on: NCI-H1666
Method in brief: as §1

PC-3 [JPC-3] = tested on: PC-3 [JPC-3]
Method in brief: as §1

`COc1cc(N2CCC(C(N)=O)CC2)ccc1Nc1nc(N)c(Cl)c(Nc2ccccc2S(=O)(=O)C(C)C)n1` [HG-5-88-01] + Cc1cc(Nc2cc(N3CCN(C)CC3)nc(Sc3ccc(NC(=O)C4CC4)cc3)n2)n[nH]1 [Tozasertib] (partner 0.1 µM) gave a relative viability (BEN; first compound 0.04 µM) of 0.554, a relative viability (BEN; first compound 0.1265 µM) of 0.482 and a relative viability (BEN; first compound 0.4 µM) of 0.509. The relative viability (BEN; first compound 1.265 µM) was 0.484, the relative viability (BEN; first compound 4 µM) was 0.531 and the relative viability (HCC-15; first compound 0.04 µM) was 0.383. The relative viability (HCC-15; first compound 0.1265 µM) was 0.368, the relative viability (HCC-15; first compound 0.4 µM) was 0.373 and the relative viability (HCC-15; first compound 1.265 µM) was 0.107. The relative viability (HCC-15; first compound 4 µM) was 0.159, the relative viability (NCI-H1651; first compound 0.04 µM) was 0.71 and the relative viability (NCI-H1651; first compound 0.1265 µM) was 0.745. For the same compound, the relative viability (NCI-H1651; first compound 0.4 µM) was 0.7, the relative viability (NCI-H1651; first compound 1.265 µM) was 0.388 and the relative viability (NCI-H1651; first compound 4 µM) was 0.455. The relative viability (HCC-78; first compound 0.04 µM) was 0.428, the relative viability (HCC-78; first compound 0.1265 µM) was 0.315 and the relative viability (HCC-78; first compound 0.4 µM) was 0.424. It also gave a relative viability (HCC-78; first compound 1.265 µM) of 0.231, a relative viability (HCC-78; first compound 4 µM) of 0.279 and a relative viability (NCI-H358; first compound 0.04 µM) of 0.107. It also gave a relative viability (NCI-H358; first compound 0.1265 µM) of 0.0991, a relative viability (NCI-H358; first compound 0.4 µM) of 0.0776 and a relative viability (NCI-H358; first compound 1.265 µM) of 0.0713. The relative viability (NCI-H358; first compound 4 µM) was 0.0702, the relative viability (ChaGo-K-1; first compound 0.04 µM) was 0.213 and the relative viability (ChaGo-K-1; first compound 0.1265 µM) was 0.25. The relative viability (ChaGo-K-1; first compound 0.4 µM) was 0.155, the relative viability (ChaGo-K-1; first compound 1.265 µM) was 0.229 and the relative viability (ChaGo-K-1; first compound 4 µM) was 0.211. The relative viability (LXF-289; first compound 0.04 µM) was 0.156, the relative viability (LXF-289; first compound 0.1265 µM) was 0.179 and the relative viability (LXF-289; first compound 0.4 µM) was 0.185. The relative viability (LXF-289; first compound 1.265 µM) was 0.196, the relative viability (LXF-289; first compound 4 µM) was 0.0786 and the relative viability (H3255; first compound 0.04 µM) was 0.71. For the same compound, the relative viability (H3255; first compound 0.1265 µM) was 0.791, the relative viability (H3255; first compound 0.4 µM) was 0.616 and the relative viability (H3255; first compound 4 µM) was 0.731. The relative viability (NCI-H650; first compound 0.04 µM) was 0.765, the relative viability (NCI-H650; first compound 0.1265 µM) was 0.72 and the relative viability (NCI-H650; first compound 0.4 µM) was 0.594. For the same compound, the relative viability (NCI-H650; first compound 1.265 µM) was 0.461, the relative viability (NCI-H650; first compound 4 µM) was 0.523 and the relative viability (LK-2; first compound 0.04 µM) was 0.171. It also gave a relative viability (LK-2; first compound 0.1265 µM) of 0.18, a relative viability (LK-2; first compound 0.4 µM) of 0.14 and a relative viability (LK-2; first compound 1.265 µM) of 0.18. For the same compound, the relative viability (LK-2; first compound 4 µM) was 0.16, the relative viability (NCI-H596; first compound 0.04 µM) was 0.955 and the relative viability (NCI-H596; first compound 0.1265 µM) was 0.907. The relative viability (NCI-H596; first compound 0.4 µM) was 0.877, the relative viability (NCI-H596; first compound 1.265 µM) was 1.09 and the relative viability (NCI-H596; first compound 4 µM) was 1. For the same compound, the relative viability (SK-MES-1; first compound 0.04 µM) was 0.843, the relative viability (SK-MES-1; first compound 0.1265 µM) was 0.909 and the relative viability (SK-MES-1; first compound 0.4 µM) was 0.833. For the same compound, the relative viability (SK-MES-1; first compound 1.265 µM) was 0.579, the relative viability (SK-MES-1; first compound 4 µM) was 0.158 and the relative viability (LC-2-ad; first compound 0.04 µM) was 0.505. It also gave a relative viability (LC-2-ad; first compound 0.1265 µM) of 0.517, a relative viability (LC-2-ad; first compound 0.4 µM) of 0.579 and a relative viability (LC-2-ad; first compound 1.265 µM) of 0.299. For the same compound, the relative viability (LC-2-ad; first compound 4 µM) was 0.255, the relative viability (NCI-H2087; first compound 0.04 µM) was 0.266 and the relative viability (NCI-H2087; first compound 0.1265 µM) was 0.203. For the same compound, the relative viability (NCI-H2087; first compound 0.4 µM) was 0.262, the relative viability (NCI-H2087; first compound 1.265 µM) was 0.22 and the relative viability (NCI-H2087; first compound 4 µM) was 0.14. The relative viability (UMC-11; first compound 0.04 µM) was 0.213, the relative viability (UMC-11; first compound 0.1265 µM) was 0.205 and the relative viability (UMC-11; first compound 1.265 µM) was 0.192. For the same compound, the relative viability (UMC-11; first compound 4 µM) was 0.191, the relative viability (NCI-H322M; first compound 0.04 µM) was 0.456 and the relative viability (NCI-H322M; first compound 0.1265 µM) was 0.443. It also gave a relative viability (NCI-H322M; first compound 0.4 µM) of 0.387, a relative viability (NCI-H322M; first compound 4 µM) of 0.38 and a relative viability (NCI-H838; first compound 0.04 µM) of 0.234. For the same compound, the relative viability (NCI-H838; first compound 0.1265 µM) was 0.256, the relative viability (NCI-H838; first compound 0.4 µM) was 0.185 and the relative viability (NCI-H838; first compound 1.265 µM) was 0.209. It also gave a relative viability (NCI-H838; first compound 4 µM) of 0.21, a relative viability (LCLC-97TM1; first compound 0.04 µM) of 0.215 and a relative viability (LCLC-97TM1; first compound 0.1265 µM) of 0.205. The relative viability (LCLC-97TM1; first compound 0.4 µM) was 0.226, the relative viability (LCLC-97TM1; first compound 1.265 µM) was 0.148 and the relative viability (LCLC-97TM1; first compound 4 µM) was 0.0909. It also gave a relative viability (LU99A; first compound 0.04 µM) of 0.29, a relative viability (LU99A; first compound 0.1265 µM) of 0.301 and a relative viability (LU99A; first compound 0.4 µM) of 0.264. The relative viability (LU99A; first compound 1.265 µM) was 0.267, the relative viability (LU99A; first compound 4 µM) was 0.266 and the relative viability (NCI-H661; first compound 0.04 µM) was 0.354. The relative viability (NCI-H661; first compound 0.1265 µM) was 0.338, the relative viability (NCI-H661; first compound 0.4 µM) was 0.333 and the relative viability (NCI-H661; first compound 1.265 µM) was 0.397. It also gave a relative viability (NCI-H661; first compound 4 µM) of 0.377, a relative viability (NCI-H1944; first compound 0.04 µM) of 0.268 and a relative viability (NCI-H1944; first compound 0.1265 µM) of 0.274. It also gave a relative viability (NCI-H1944; first compound 0.4 µM) of 0.261, a relative viability (NCI-H1944; first compound 1.265 µM) of 0.239 and a relative viability (NCI-H1944; first compound 4 µM) of 0.235. The relative viability (NCI-H2342; first compound 0.04 µM) was 0.563, the relative viability (NCI-H2342; first compound 0.1265 µM) was 0.547 and the relative viability (NCI-H2342; first compound 0.4 µM) was 0.574. It also gave a relative viability (NCI-H2342; first compound 1.265 µM) of 0.273, a relative viability (NCI-H2342; first compound 4 µM) of 0.443 and a relative viability (NCI-H1666; first compound 0.04 µM) of 0.577. The relative viability (NCI-H1666; first compound 0.1265 µM) was 0.603, the relative viability (NCI-H1666; first compound 0.4 µM) was 0.556 and the relative viability (NCI-H1666; first compound 1.265 µM) was 0.498. For the same compound, the relative viability (NCI-H1666; first compound 4 µM) was 0.346, the relative viability (PC-3 [JPC-3]; first compound 0.04 µM) was 0.954 and the relative viability (PC-3 [JPC-3]; first compound 0.1265 µM) was 0.825. For the same compound, the relative viability (PC-3 [JPC-3]; first compound 0.4 µM) was 0.882, the relative viability (PC-3 [JPC-3]; first compound 1.265 µM) was 0.863 and the relative viability (PC-3 [JPC-3]; first compound 4 µM) was 0.702.
